Values quoted from earlier work as cited in article PMC12309854, “Evidencing the role of a conserved polar signaling channel in the activation mechanism of the μ-opioid receptor” (Computational and Structural Biotechnology Journal, 2025).

Biological target: MOP
Parameters: method as in PMID 31527522
Conditions: value given in the method for the Cheng-Prusoff calculation, source not stated; protocol ref 58; read-out: Kd of the radioligand
Protocol: Binding assays were carried out following a previously published protocol, at 25 °C for a duration of 60 min using a 50 mM Tris–HCl buffer (pH 7.4) in glass tubes. […] Non-specific binding was evaluated u ...

For DAMGO [[^3H]DAMGO], the Kd is listed as 0.5 nM.
